Laboratory results published in patent publication US20040209246A1, “Dual reporter/dye reduction methodology for evaluating antiviral and cytotoxicity of hepatitis C virus inhibitors” (Agouron Pharmaceuticals, Inc., priority 2003, published 2004).
Where “and” joins values, the source holds several entries; their conditions need not be identical. Equal values may be shown once. Read-outs that look alike come from different tables or passages of the source.

Assays:
[1] = test system: reporter-selectable HCV replicon BB7M4hRLuc in BB7 M4 hRLuc#10 Huh-7 cells; test: HCV replicon hRLuc reporter antiviral assay, cell line #10; type: cell-based, Hepatitis C virus; details: cell line #10, hRLuc endpoint, three days incubation
Protocol: (§1) An HCV replicon reporter assay system can be developed to determine the specific antiviral activity of inhibitors in standard dose response assays. In such assays, the reporter-selectable containing Huh-7 cells are incubated in 96 wells containing serial dilutions of test inhibitors or no inhibitor. At a specified time after incubation, the activities of the viral-encoded reporter genes are measured in the cell lines using the appropriate reporter assay methodologies. Data from the reporter gene measurements can be expressed as the percent of reporter gene activity in inhibitor-treated cells relative to that of inhibitor-free cells. An analysis of the antiviral component of such data allows for the calculation of the fifty-percent effective concentration (EC50).
In another embodiment of the invention, the dual antiviral activity/cytotoxicity reporter assay system, in conjunction with recording cytotoxicity in the same wells by the dye reduction method, can be used to determine the specific antiviral activity of inhibitors in standard dose response assays using three endpoints. In such assays, target cells containing the reporter-selectable replicon in microtiter are incubated for a desired duration of time at 37° C. and 5% CO2 with plates containing serial dilutions of test inhibitors or no inhibitor. After the incubation period, the activities of the viral and target cell-encoded reporter genes, as well as cytotoxicity by the dye reduction method, are measured using the appropriate dual reporter assay methods subsequent to the measurement of cellular proliferation by dye reduction. Data from the reporter gene and cellular proliferation measurements can be expressed as the percent of reporter gene activity or optical density (OD) reading in inhibitor-treated cells relative to that of inhibitor-free cells. […] The therapeutic index (TI), which is a measurement of the specific antiviral activity of an inhibitor, can then be calculated by dividing the cytotoxicity (CC50) by the antiviral activity (EC50).

[2] = test system: reporter-selectable HCV replicon BB7M4hRLuc in B6b Huh-7 cells; test: HCV replicon hRLuc reporter antiviral assay, dual reporter cell line B6b; type: cell-based, Hepatitis C virus; details: hRLuc endpoint, three days incubation
Protocol: as §1
In another embodiment of the invention, the dual antiviral activity/cytotoxicity reporter assay system, in conjunction with recording cytotoxicity in the same wells by the dye reduction method, can be used to determine the specific antiviral activity of inhibitors in standard dose response assays using three endpoints. In such assays, target cells containing the reporter-selectable replicon in microtiter are incubated for a desired duration of time at 37° C. and 5% CO2 with plates containing serial dilutions of test inhibitors or no inhibitor. After the incubation period, the activities of the viral and target cell-encoded reporter genes, as well as cytotoxicity by the dye reduction method, are measured using the appropriate dual reporter assay methods subsequent to the measurement of cellular proliferation by dye reduction. Data from the reporter gene and cellular proliferation measurements can be expressed as the percent of reporter gene activity or optical density (OD) reading in inhibitor-treated cells relative to that of inhibitor-free cells. An analysis of the antiviral component of such data allows for the calculation of the fifty-percent effective concentration (EC50) or ninety-percent effective concentration […] of an inhibitor. In addition, an analysis of the cytotoxicity component of the data can be used to calculate the 50% cytotoxicity concentration (CC50) of an inhibitor. The therapeutic index (TI), which is a measurement of the specific antiviral activity of an inhibitor, can then be calculated by dividing the cytotoxicity (CC50) by the antiviral activity (EC50).

[3] = test system: BB7 M4 hRLuc#10 replicon cell line (Huh-7); test: XTT dye reduction cytotoxicity, cell line #10; details: read-out: CC50 (XTT); cell line #10, XTT dye reduction, three days incubation
From the text: (§2) In the current invention, two end points will be used to measure CC50 values. The first is XTT dye reduction methodology and the second is the use of the second reporter gene integrated in the nucleus of cells carrying the reporter-selectable HCV replicons. In case of both methodologies, a CC50 value will be generated from the same wells from which an EC50 value was obtained. The CC50 value would be generated by calculating % cytotoxicity of the inhibitor/compound treated wells compared to the no inhibitor/compound well resulting in generation of a dose dependent curve to obtain the value that was responsible for the death of 50% of the cells.
(§3) Cell line BB7 M4 hRLuc#10 was grown in DMEM without phenol red (catalog # 1053-028) at 10% FBS with 4 mM L-glutamine, 1×Pen-step, 1×non-essential amino acids, and 200 μg/ml G418 (all from Gibco BRL/Invitrogen). Line B6b was grown in the same media with the addition of 6 μg/ml Blasticidin (ICN Biomedicals). Experiments in these replicon lines were carried out in 96-well black wall, clear-bottom plates (Costar®; Corning Incorporated). Cells were seeded as diagrammed in the figure below at a density of 2×10^4/well in 100 μl DMEM (described above) without G418 or Blasticidin. […]
(§4) Cell line BB7 M4 hRLuc #10 contained the selectable reporter replicon BB7 M4-hRLuc, which served as an anti-viral marker, but cytotoxicity had to be measured by XTT. […]

[4] = test system: B6b dual reporter replicon cell line (Huh-7); test: XTT dye reduction cytotoxicity, cell line B6b; details: read-out: CC50 (XTT), three days incubation
From the text: as §2, §3, §4

[5] = test system: B6b dual reporter replicon cell line (Huh-7); details: read-out: CC50 (FLuc), three days incubation
From the text: as §2, §3, §4

Row | Compound | EC50 [1] | EC50 [2] | EC90 [2] | CC50 [3] | EC90 [1] | EC50 ([1]; read-out: EC50) | CC50 [4] | EC50 ([2]; read-out: EC50) | EC90 ([2]; read-out: EC90) | CC50 [5]
1 | interferon alpha [IFN] | 0.38 IU/ml and 0.67 IU/ml | 0.39 IU/ml and 0.43 IU/ml | 2.1 IU/ml and 2.6 IU/ml |  |  |  |  |  |  | 
2 | OC[C@H]1O[C@@H](n2cnc3cc(Cl)c(Cl)cc32)[C@H](O)[C@@H]1O [DRB, 5,6-dichlorobenzimidazole riboside] |  |  |  | 53.6 µM and 48.7 µM | 50.2 µM and 58 µM | 21.5 µM and 33.2 µM | 48.7 µM and 40.4 µM | 34.1 µM and 53.7 µM | 43.5 µM and 55 µM | 85.1 µM and 60.7 µM
